Test results published in patent publication US20180156826A1, “COMPOSITIONS AND METHODS FOR DIAGNOSIS OF AUTISM SPECTRUM DISORDER” (The Board of Regents of the University of Texas System, priority 2015, published 2018).
Square brackets hold non-standard residues; d marks the D form. Peptide text beside a SMILES is read from it. ξ: configuration not given here. N(3,4-(MeO)2phenethyl)Gly = COc1ccc(CCNCC(=O)O)cc1OC; Gly(N-(CH2)3OMe) = COCCCNCC(=O)O; Gly(N-cHex) = O=C(O)CNC1CCCCC1; Nleu = CC(C)CNCC(=O)O; Nme = COCCNCC(=O)O; ξC = NC(CS)C(=O)O

Tests used:
[1] = system: serum IgG; test: Peptoid ELISA, total IgG detection with serum pools; format: binding, human; settings: pooled serum of 10 TD males vs 10 ASD males
Protocol: (§1) Peptoid compounds were immobilized onto maleimide-activated 96-well plates (Pierce Biotechnology, Rockford, Ill.) by dissolving them to 0.03-0.05 mM in a 0.1 M sodium phosphate, 0.15 M sodium chloride, 10 mM EDTA solution adjusted to pH 7.2 and incubating with shaking for 3 hrs at RT. Plates were washed with PBST and blocked with a 5% goat serum (Thermo Scientific, Rockford, Ill.) in PBST solution for 1 hr at RT. Plates were washed again and incubated with target (serum) samples diluted in blocking buffer (1:1 PBST-1% BSA and SuperBlock) for 2 hrs at RT. After washing, plates were incubated with Goat anti-Human IgG-Fc-HRP conjugate (Bethyl Laboratories, Montgomery, Tex.) diluted 1:30,000 in PBST-1% BSA or mouse anti-human IgG1 (hinge)-HRP conjugate (SouthernBiotech, Birmingham, Ala.) diluted 1:1000 in PBST-1% BSA for 30 min at RT. After another wash, plates were incubated in TMB substrate for 16 min at RT and stopped with 2M H2SO4. Plates were read at 450 nm. All samples were run in duplicate, and every assay contained ASD and TD serum pool samples to serve as internal controls. Results for individual samples were assessed as ratios to the ASD serum pool so as to control for plate-to-plate variation.
Using the same two serum pools as used during screening, the “hit” peptoids were then tested by ELISA for their ability to bind IgG from the two pools. […]

[2] = system: serum IgG1; test: Peptoid ELISA, IgG1 subclass detection; format: binding, human
Protocol: as §1

With `COCCCN(CC(=O)N(CCc1ccc(OC)c(OC)c1)CC(=O)N(CC(=O)N(CC(=O)N(CCCOC)CC(=O)N(CC(=O)N(CCOC)CC(=O)NC(CS)C(N)=O)C1CCCCC1)CC(C)C)C1CCCCC1)C(=O)CNCCc1ccc(OC)c(OC)c1` (stereo not shown) [ASD1] (H-[N(3,4-(MeO)2phenethyl)Gly][Gly(N-(CH2)3OMe)][N(3,4-(MeO)2phenethyl)Gly][Gly(N-cHex)][Nleu][Gly(N-(CH2)3OMe)][Gly(N-cHex)][Nme][ξC]-NH2) the “differentiation in binding between the serum pools, total IgG” value [1] was “two-fold”, the “ASD1 binding, ASD females” value ([2]; ASD female serum samples, n=10) was 1.76±0.81 and the “ASD1 binding, TD females” value ([2]; TD female serum samples, n=20) was 1.97±0.38. For the same molecule, the “ASD1 binding of IgG1 from ASD males” value ([2]; individual ASD male serum samples, n=50, 1:100 dilution, ratio of sample absorbance to control serum pool, error SEM) was 1.33±0.31, the “ASD1 binding of IgG1 from TD males” value ([2]; individual TD male serum samples, n=43, 1:100 dilution, ratio of sample absorbance to control serum pool, error SEM) was 2.88±0.55 and the “ASD1 binding of IgG1 from older adult males” value ([2]; older adult male serum, n=53, compared with ASD and TD males) was “did not differ from that of the ASD males, but was significantly lower than that of the TD males”. For the same molecule, the “differentiation in binding between the serum pools, secondary antibody specific to IgG1 subclass” value ([2]; pooled serum of 10 TD males vs 10 ASD males) was “nearly four-fold”.
